Two compounds from ChEMBL document CHEMBL4673364, “Synthesis and cytotoxic activity of new 7-acetoxy-12-amino-14-deoxy andrographolide analogues” (Bioorg Med Chem Lett, 2021) can be followed below.

pIC50: −log10 of the molar value.

Usually pIC50 stands for −log10 of the IC50, conventionally taken in molar units.

One assay deals with A549. The experiment in a line: Cytotoxicity against human A549 cells assessed as reduction in cell viability by SRB assay. Format: functional, cell-based. (In SRB staining, fixed cells bind dye roughly in proportion to their protein.)
A short description of assay [1]: Cytotoxicity against rat ASK cells assessed as reduction in cell viability by SRB assay. The format is functional, cell-based.
Assay [2] in a line: Potency index, ratio of andrographolide IC50 to test compound IC50 for cytotoxicity against human K213 cells. The format is functional.
Assay [3] deals with KB. Put plainly: Potency index, ratio of andrographolide IC50 to test compound IC50 for cytotoxicity against human KB cells. The format is functional.
A short description of assay [4]: Potency index, ratio of andrographolide IC50 to test compound IC50 for cytotoxicity against human K055 cells. The format is functional.
The nature of assay [5]: Cytotoxicity against human K213 cells assessed as reduction in cell viability by SRB assay. The format is functional, cell-based.
Assay [6] is described as follows: Cytotoxicity against human K055 cells assessed as reduction in cell viability by SRB assay. The format is functional, cell-based.
A further assay concerns MCF7. The experiment in a line: Cytotoxicity against human MCF7 cells assessed as reduction in cell viability by SRB assay. The format is functional, cell-based.
The test system of assay [7] is KB. Put plainly: Cytotoxicity against human KB cells assessed as reduction in cell viability by SRB assay. Format: functional, cell-based.
For the next assay, the system named is HT-29. Put plainly: Cytotoxicity against human HT-29 cells assessed as reduction in cell viability by SRB assay. Format: functional, cell-based.
The nature of assay [8]: Cytotoxicity against human P388 cells assessed as reduction in cell viability by SRB assay. The format is functional, cell-based.
Assay [9] in a line: Potency index, ratio of andrographolide IC50 to test compound IC50 for cytotoxicity against […] cells. Format: functional.

For `C=C1[C@@H](OC(C)=O)C[C@@H]2[C@](C)(CO[Si](C)(C)C(C)(C)C)[C@H](OC(C)=O)CC[C@@]2(C)[C@@H]1C/C=C1/C(=O)OC[C@H]1OC(C)=O`, the negative logarithm of the IC50 (pIC50) was 5.33 in the assay with A549; 5.39 in [1]; 5.32 in [5]; 5.35 in assay [6]; 5.34 with MCF7; 5.30 in the assay with KB [7]. Also, the pIC50 in the assay with HT-29 was 5.31; in assay [8], 6.37. The “Ratio IC50” value (in [2]; in the assay with KB [3]; in assay [4]) was 8 in each case.

In the case of `C=C1[C@@H](OC(C)=O)C[C@@H]2[C@](C)(CO[Si](C)(C)C(C)(C)C)[C@H](OC(C)=O)CC[C@@]2(C)[C@@H]1C[C@@H](Nc1ccccc1)C1=CCOC1=O`, the pIC50 is 5.35 in the assay with A549; 5.30 in assay [1]; 5.24 in assay [5]; 5.35 in assay [6]; 5.32 with MCF7; 5.24 in the assay on KB [7]. For the same compound, the results for the pIC50 (in the assay with HT-29; in assay [8]) were 5.39 and 5.36, respectively. Also, in assay [9], the “Ratio IC50” value came to 9.
